Measured values from paper PMC10553834, “Differentiating the roles of Mycobacterium tuberculosis substrate binding proteins, FecB and FecB2, in iron uptake” (PLOS Pathogens, 2023).
“Also recorded” adds a separate entry of the source. Read-outs that look alike come from different tables or passages of the source.

Legend:
[1] = target: Mtb FecB2 (Rv0265c) (Mycobacterium tuberculosis, UniProt L7N6B2); format: binding; conditions: FecB2-His (with His tag); 100 nM protein, 50 mM Tris-HCl pH 7.4, 150 mM NaCl, emission 335 nm
Chain of Mtb FecB2 (Rv0265c) (L7N6B2 39-330 limits assumed): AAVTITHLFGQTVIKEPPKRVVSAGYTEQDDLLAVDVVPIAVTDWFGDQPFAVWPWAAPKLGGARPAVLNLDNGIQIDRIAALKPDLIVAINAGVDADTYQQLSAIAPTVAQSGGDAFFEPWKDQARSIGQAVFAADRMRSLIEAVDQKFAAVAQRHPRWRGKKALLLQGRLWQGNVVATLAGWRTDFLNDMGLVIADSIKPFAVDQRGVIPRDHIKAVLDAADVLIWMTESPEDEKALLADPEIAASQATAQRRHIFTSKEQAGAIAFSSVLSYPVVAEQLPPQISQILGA

[2] = target: Mtb FecB (Rv3044) (Mycobacterium tuberculosis, UniProt O53291); test: biochemical; format: binding
Chain of Mtb FecB (Rv3044) (O53291 entry or part of it): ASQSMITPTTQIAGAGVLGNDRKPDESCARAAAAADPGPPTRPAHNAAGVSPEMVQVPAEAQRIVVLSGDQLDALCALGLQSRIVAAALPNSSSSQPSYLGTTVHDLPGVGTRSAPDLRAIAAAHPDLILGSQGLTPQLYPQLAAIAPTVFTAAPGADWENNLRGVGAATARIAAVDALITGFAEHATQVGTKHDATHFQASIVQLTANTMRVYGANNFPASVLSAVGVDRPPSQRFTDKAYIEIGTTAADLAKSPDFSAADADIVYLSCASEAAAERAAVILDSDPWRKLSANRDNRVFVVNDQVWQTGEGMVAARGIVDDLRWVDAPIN

| Molecule | Kd [1] | Kd [2] | Kd ([2]; FecB without His tag (tagless), 100 nM protein, 50 mM Tris-HCl pH 7.4, 150 mM NaCl, emission 335 nm) | Kd ([2]; FecB-His (with His tag, native), 100 nM protein, 50 mM Tris-HCl pH 7.4, 150 mM NaCl, emission 335 nm) | Fold weaker affinity to FecB compared to Fe-cMB [2] | Kd ([2]; listed as Fe-mycobactin J) |
| --- | --- | --- | --- | --- | --- | --- |
| ferric-carboxymycobactin [Fe-cMB] | could not be determined; also recorded: too weak to be determined | 550 nM | 680 nM | 630 ± 120 nM | – | – |
| ferric-pyoverdines | – | > 45000 nM | – | – | at least 40 fold | – |
| ferric-mycobactin J [Fe-MBJ] | – | ~11000 nM | – | – | ~20 fold | 11300 ± 100 nM |
| carboxymycobactin [apo-cMB] | – | 2900 ± 100 nM | – | – | ~4 fold | – |
| O=C(N[C@H]1COC(=O)[C@@H](NC(=O)c2cccc(O)c2O)COC(=O)[C@@H](NC(=O)c2cccc(O)c2O)COC1=O)c1cccc(O)c1O [ferric-enterobactin] | – | 26100 nM | – | – | at least 40 fold | – |
